Reference: patent US20100056623A1, “FUMAGILLOL DERIVATIVES OR METHOD FOR PREPARATION OF FUMAGILLOL DERIVATIVES, AND PHARMACEUTICAL COMPOSITIONS COMPRISING THE SAME” (CHONG KUN DANG PHARMACEUTICAL CORP., priority 2005, published 2010)
Where two headings read alike, the source gives them in different places.

Legend:
L5178Y lymphoma = assay: Inhibiting activity on cell proliferation, MTT analysis (L5178Y); type: cell-based, murine; conditions: L5178Y lymphoma cells, 3 days with drug
Experimental: (§1) In order to compare the safety index (SI) of CPAE (calf pulmonary artery endothelial cell) with that of HUVEC (human umbilical vein endothelial cell), L5178Y lymphoma that was isolated from murine thymus was used. The safety index was defined as IC50 ratio of L5178Y against CPAE (IC50L5178Y/IC50CPAE). All cell lines, which had been kept in liquid nitrogen tank, were used after being thawed and subcultured 2˜3 times in T-flask. CPAE, HUVEC and L5178Y were cultured in MEM culture medium (20% FBS, 50˜100 μg/ml ECGS, 0.15% baking soda, 0.05 mg/ml gentamicin), M199 culture medium (20% FBS, 0.22% baking soda, 100 μg/ml heparin, 3 ng/ml bFGF, 0.05 mg/ml gentamicin) and RPMI 1640 culture medium (10% FBS, 0.2% baking soda, 0.05 mg/ml gentamicin), respectively, under the condition of 37° C. and 5% CO2.
(§2) The drug was prepared by being gradationally diluted to two or ten times by using PBS, 20 μl of the solution was added to each well of 96 well plate in triplicate. The cell, which is being incubated, was treated with trypsin to give cell suspension. The number of cell thereafter was counted. And 180 μl of the solution was inoculated to each well and cultured.
The tumor cell was cultured with drugs for 3 days and then 50 μl of MTT (3-(4,5-dimethylthiazole-2-yl)-2,5-diphenyl tetrazolium bromide, Sigma Chemical Co.) solution (2.5 mg/ml in PBS) was added thereto. And it was further cultured for 4 hours at 37° C. Culture medium was removed carefully. And after dissolving formazan crystal by adding 150 μl of DMSO, the absorbance at 570 nm was determined.

Solubility test = type: physicochemical; conditions: ordinary temperature
Experimental: To a constant amount (400 mg) of each compounds of present invention, a constant amount of demineralized water, methanol and ethanol were added separately, and the solution was stirred at ordinary temperature.

[1] = tested on: CPAE (calf pulmonary artery endothelial cell); assay: Inhibiting activity on cell proliferation, SRB analysis (CPAE); type: cell-based; conditions: for IC50: CPAE cells, 3 days with drug, SRB, read-out: IC50 (nM) CAPE; for Selectivity Index (L5178Y/CAPE): IC50 L5178Y / IC50 CPAE
Experimental: as §1, §2
(§3) The cell was cultured with drugs for 3 days and then 50 μl of 50% TCA was added thereto (final concentration 10%). Subsequently the cell was fixed by being left alone at 4° C. for 1 hour. The well was washed 4 times by distilled water and then dried. After that 100 μl of SRB (Sulforhodamine B, Sigma Chemical Co.) solution (0.4% w/v in 1% acetic acid) was added thereto and then it was left alone at ordinary temperature for 30 minutes. Thereafter the well was washed 4 times by 1% acetic acid and dried. And then after adding 200 μl of 10 mM tris buffer, the absorbance at 570 nm was measured by automatic microplate reader (Model: Elx 808, Bio-Tek Instrument, INC). The viability was calculated from the ratio of the absorbance of the control to which drugs were not added and the well to which drugs were added.

[2] = tested on: HUVEC (human umbilical vein endothelial cell); assay: Inhibiting activity on cell proliferation, SRB analysis (HUVEC); type: cell-based; conditions: HUVEC cells, 3 days with drug
Experimental: as §1, §2, §3

[3] = Chemical stability test (HPLC purity); conditions: for 1 month Other peaks (%) / 1 month Parent peak (%) / Initial Other peaks (%) / Initial Parent peak (%): HPLC; for 1 month Other peaks (%) / 1 month Parent peak (%): air-tight vessel; for change of purity (%): initial vs 1 month at 40±2° C.
[4] = 1 month at 40±2° C., 75±5% relative humidity
[5] = Bos taurus, Endothelial cell, 72 h

| Structure (SMILES) | IC50 (L5178Y lymphoma) [nM] | The amount of solvent to dissolve 1 g of the compounds (ml), demineralized water (Solubility test) [mL] | The amount of solvent to dissolve 1 g of the compounds (ml), ethanol (Solubility test) [mL] | The amount of solvent to dissolve 1 g of the compounds (ml), methanol (Solubility test) [mL] | IC50 [1] [nM] | Selectivity Index (L5178Y/CAPE) [1] | IC50 [2] [nM] | 1 month Other peaks (%) [3, 4] [%] | 1 month Parent peak (%) [3, 4] [%] | Initial Other peaks (%) [3] [%] | Initial Parent peak (%) [3] [%] | change of purity (%) ([3]; 75±5% relative humidity) | IC50 (L5178Y lymphoma; Mus musculus, 72 h) [nM] | IC50 [1, 5] [nM] | IC50 ([2]; Homo sapiens, 72 h) [nM] | change of purity (in words) [3, 4] | chemical stability compared to known compounds [3, 4] |
| --- | --- | --- | --- | --- | --- | --- | --- | --- | --- | --- | --- | --- | --- | --- | --- | --- | --- |
| CO[C@@H]1[C@H](OC(=O)C=Cc2ccc(OCCN(C)C)cc2)CC[C@]2(CO2)[C@H]1[C@@]1(C)O[C@@H]1CC=C(C)C [CKD-732, O-(4-dimethylaminoethoxycinnamoyl)fumagillol, reference compound] | 8720 | 1100 | 219 | 197 | 0.648 | 1.35 × 10^4 | 0.0066 | 4.6 | 95.4 | 0.8 | 99.2 | 3.8 | – | – | – | – | – |
| COc1ccc(/C=C/C(=O)O[C@@H]2CC[C@]3(CO3)[C@@H]([C@@]3(C)O[C@@H]3CC=C(C)C)[C@@H]2OC)cc1OCCO [Example 4, O-(3-(2-hydroxyethoxy)-4-methoxycinnamoyl)fumagillol] | – | 145 | 65 | 49 | – | 4.53 × 10^6 | – | 1.5 | 98.5 | 1.3 | 98.7 | 0.2 | 27300 | 0.006 | 0.00376 | hardly showed a change of purity | more excellent chemical stability than TNP-470, CKD-732 and CKD-731 |
| CO[C@@H]1[C@H](OC(=O)/C=C/c2ccc(NCCO)cc2)CC[C@]2(CO2)[C@H]1[C@@]1(C)O[C@@H]1CC=C(C)C [Example 5, O-(4-(2-hydroxyethylamino)cinnamoyl)fumagillol] | – | 132 | 60 | 39 | – | 1.16 × 10^6 | – | 1.5 | 98.5 | 0.8 | 99.2 | 0.7 | 7110 | 0.0061 | 0.00104 | – | more excellent chemical stability than TNP-470, CKD-732 and CKD-731 |
| CO[C@@H]1[C@H](OC(=O)/C=C/c2cccc(NCCO)c2)CC[C@]2(CO2)[C@H]1[C@@]1(C)O[C@@H]1CC=C(C)C [Example 6, O-(3-(2-hydroxyethylamino)cinnamoyl)fumagillol] | – | 130 | 58 | 31 | – | 3.88 × 10^6 | – | 1.9 | 98.1 | 1.4 | 98.6 | 0.5 | 27700 | 0.0071 | 0.00222 | – | more excellent chemical stability than TNP-470, CKD-732 and CKD-731 |
| CO[C@@H]1[C@H](OC(=O)/C=C/c2ccc(Cl)c(NCCO)c2)CC[C@]2(CO2)[C@H]1[C@@]1(C)O[C@@H]1CC=C(C)C [Example 7, O-(4-chloro-3-(2-hydroxyethylamino)cinnamoyl)fumagillol] | – | 137 | 67 | 42 | – | 4.77 × 10^6 | – | 1.1 | 98.9 | 0.6 | 99.4 | 0.5 | 31000 | 0.0065 | 0.0017 | – | more excellent chemical stability than TNP-470, CKD-732 and CKD-731 |
| CO[C@@H]1[C@H](OC(=O)/C=C/c2ccc(NCCOCCO)cc2)CC[C@]2(CO2)[C@H]1[C@@]1(C)O[C@@H]1CC=C(C)C [Example 16, O-(4-(2-hydroxyethoxyethylamino)cinnamoyl)fumagillol] | – | – | – | – | – | 2.31 × 10^5 | – | – | – | – | – | – | 9490 | 0.041 | 0.0022 | – | – |
| CO[C@@H]1[C@H](OC(=O)/C=C/c2cccc(NCCOCCO)c2)CC[C@]2(CO2)[C@H]1[C@@]1(C)O[C@@H]1CC=C(C)C [Example 17, O-(3-(2-hydroxyethoxyethylamino)cinnamoyl)fumagillol] | – | – | – | – | – | 6.26 × 10^5 | – | – | – | – | – | – | 30700 | 0.049 | 0.00302 | – | – |
| CO[C@@H]1[C@H](OC(=O)/C=C/c2ccc(Cl)c(NCCOCCO)c2)CC[C@]2(CO2)[C@H]1[C@@]1(C)O[C@@H]1CC=C(C)C [Example 18, O-(4-chloro-3-(2-hydroxyethoxyethylamino)cinnamoyl)fumagillol] | – | – | – | – | – | 9.31 × 10^5 | – | – | – | – | – | – | 41900 | 0.045 | 0.0019 | – | – |
| CO[C@@H]1[C@H](OC(=O)/C=C/c2ccc(OCCCCCO)cc2)CC[C@]2(CO2)[C@H]1[C@@]1(C)O[C@@H]1CC=C(C)C [Example 23, O-(4-(5-hydroxypentoxy)cinnamoyl)fumagillol] | – | – | – | – | – | 1.98 × 10^5 | – | – | – | – | – | – | 9250 | 0.0467 | 0.0057 | – | – |
| CO[C@@H]1[C@H](OC(=O)/C=C/c2ccc(OCCCCCO)c([N+](=O)[O-])c2)CC[C@]2(CO2)[C@H]1[C@@]1(C)O[C@@H]1CC=C(C)C [Example 24, O-(3-nitro-4-(5-hydroxypentoxy)cinnamoyl)fumagillol] | – | – | – | – | – | 1.10 × 10^5 | – | – | – | – | – | – | 10400 | 0.0946 | 0.0042 | – | – |
| CO[C@@H]1[C@H](OC(=O)/C=C/c2ccc(OCCCCCCO)cc2)CC[C@]2(CO2)[C@H]1[C@@]1(C)O[C@@H]1CC=C(C)C [Example 25, O-(4-(6-hydroxyhexyloxy)cinnamoyl)fumagillol] | – | – | – | – | – | 1.70 × 10^5 | – | – | – | – | – | – | 21100 | 0.124 | 0.0015 | – | – |
| CO[C@@H]1[C@H](OC(=O)/C=C/c2ccc(OCCCCCCO)c(C(F)(F)F)c2)CC[C@]2(CO2)[C@H]1[C@@]1(C)O[C@@H]1CC=C(C)C [Example 26, O-(3-trifluoromethyl-4-(6-hydroxyhexyloxy)cinnamoyl)fumagillol] | – | – | – | – | – | 1.48 × 10^4 | – | – | – | – | – | – | 9990 | 0.677 | 0.0019 | – | – |
| CO[C@@H]1[C@H](OC(=O)NC(=O)CCl)CC[C@]2(CO2)[C@H]1[C@@]1(C)O[C@@H]1CC=C(C)C [TNP-470, O-chloroacetylcarbamoylfumagillol, reference compound] | – | 876 | 250 | 208 | – | 3.85 × 10^3 | – | 3.5 | 96.5 | 1.3 | 98.7 | 2.2 | 4300 | 0.449 | 0.00896 | – | – |
